US9642832B2, “Use of atractylenolide compound or its derivatives and a medicament for inhibiting platelet aggregation” (No. 3 People Hospital Affiliated to Shanghai Jiaotong …, priority 2014, dated 2017)

Experiments:
Type in all cases: cell-based, human
platelets [1] = experiment: Platelet aggregation test, thrombin as stimulant; conditions: for in vitro platelet aggregation inhibition, comparative experiment: under the stimulus of thrombin; for platelet aggregation inhibition: human platelets 3×10^8/mL, compound 0.1, 0.5, 1, 5, 10 μM, incubated 3 mins, thrombin stimulant
platelets [2] = experiment: Platelet spreading test on fibrin, phalloidin staining; conditions: platelets 3×10^7/mL, compound 1, 5, 10 μM, incubated 3 mins, spread on fibrin (40 μg/mL), 100× oil immersion lens
Procedure: (1) Preparation of platelets: use the same method as abovementioned to prepare platelets counting 3×10^7/mL.
The compound is incubated in platelets for 3 mins. The platelets treated by the drug are spread on fibrin (40 μg/mL). After Staining by the fluorescent antibody phalloidin, the spreading of platelets are observed under the 100× oil immersion lens.
(2) Concentration gradient of compound atractylenolide III; final concentrations of the compound in 100 uL platelets are respectively 1 μM, 5 μM, 10 μM. The compound is incubated in platelets for 3 mins. The platelets treated by the drug are spread on fibrin (40 μg/mL). After staining by the fluorescent antibody phalloidin, the spreading of platelets is observed under the 100× oil immersion lens.

Akt molecule = experiment: Western blotting test on phosphorylation levels of related molecules in platelets; conditions: platelet protein samples collected after the aggregation test
Text: After acquiring the aggregation curve in Example 1, platelet protein samples (2×SDS loading protein lysis buffer) are collected, and tested by Western blotting for phosphorylation levels of related molecules.
Testing the phosphorylation levels of related molecules in the signal pathway using Western blotting, when the PI3K/Akt signal pathway is activated, the Akt molecule is activated via phosphorylation, which leads to the activation of downstream enzymes, kinases, transcription factors (e.g. GSK3), etc.
After acquiring the aggregation curve in Example 2, platelet protein samples (2×SDS loading protein lysis buffer) are collected, and tested by Western blotting for phosphorylation levels of related molecules.

| Compound | in vitro platelet aggregation inhibition, comparative experiment (platelets [1]; 150 μM) | in vitro platelet aggregation inhibition, comparative experiment (platelets [1]; 10 μM) | platelet aggregation inhibition (platelets [1]) | effect on platelet spreading (platelets [2]) | phosphorylation level of the Akt molecule (Akt molecule) |
| --- | --- | --- | --- | --- | --- |
| CC(=O)Oc1ccccc1C(=O)O [acetylsalicylic acid, reference compound] | does not show the inhibitory effect |  |  |  |  |
| C=C1CCC[C@]2(C)C[C@]3(O)OC(=O)C(C)=C3C[C@@H]12 [atractylenolide III] |  | has the effect of inhibiting platelet aggregation | has an effect of inhibiting platelet aggregation | has an influence on platelet spreading | affects the phosphorylation level of the Akt molecule |
| atractylenolide II |  | has the effect of inhibiting platelet aggregation | has an effect of inhibiting platelet aggregation | has an influence on platelet spreading |  |
